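Five compound concentrations were applied to cells in 96-well plates for 48 hours; endpoints were derived by simple linear interpolation of the resulting dose-response curve. The concentration for 50% growth inhibition is given as GI50.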 Active and inactive are the calls of the source. Cut-off read from the data, not from the text of the source: active = GI50 up to about 1.1 µM and inactive = higher.
Assays:
Assay in all cases: growth of human tumour cells (NCI), 48 h
LOX IMVI = system: LOX IMVI
HCT-116 = system: HCT-116
OVCAR-8 = system: OVCAR-8
UACC-257 = system: UACC-257
SF-295 = system: SF-295
KM-20L2 = system: KM-20L2
DLD-1 = system: DLD-1
NCI-H460 = system: NCI-H460
COLO 205 = system: COLO 205
M14 = system: M14
Malme-3M = system: Malme-3M
HCC 2998 = system: HCC 2998
UACC-62 = system: UACC-62
OVCAR-3 = system: OVCAR-3
RXF 393 = system: RXF 393
A549 = system: A549
IGROV-1 = system: IGROV-1
SN12C = system: SN12C
DMS-273 = system: DMS-273
EKVX = system: EKVX
SNB-19 = system: SNB-19
SNB-75 = system: SNB-75
KM12 = system: KM12
SNB-78 = system: SNB-78
U-251 = system: U-251
SW-620 = system: SW-620
HT-29 = system: HT-29
OVCAR-4 = system: OVCAR-4
DMS-114 = system: DMS-114
HOP-62 = system: HOP-62
NCI-H23 = system: NCI-H23
LXFL 529 = system: LXFL 529
SF-539 = system: SF-539
HCT-15 = system: HCT-15
SF-268 = system: SF-268
M19-MEL = system: M19-MEL
TK-10 = system: TK-10
UO-31 = system: UO-31
SK-MEL-2 = system: SK-MEL-2
MOLT-4 = system: MOLT-4
ACHN = system: ACHN
SK-MEL-28 = system: SK-MEL-28
K562 = system: K562
786-0 = system: 786-0
SK-MEL-5 = system: SK-MEL-5
A498 = system: A498
HL-60 = system: HL-60
CCRF-CEM = system: CCRF-CEM
RPMI-8226 = system: RPMI-8226
HOP-18 = system: HOP-18
SK-OV-3 = system: SK-OV-3
HOP-92 = system: HOP-92
NCI-H226 = system: NCI-H226
OVCAR-5 = system: OVCAR-5
CAKI-1 = system: CAKI-1
SR = system: SR
NCI-H522 = system: NCI-H522

SMILES: CCOC(=O)C1=C(C)C2C3C(=O)NC(=O)C3C1(C)C1C(=O)NC(=O)C21 (stereo not given)
- GI50 (LOX IMVI): > 100 µM (inactive)
- GI50 (HCT-116): > 100 µM (inactive)
- GI50 (OVCAR-8): > 100 µM (inactive)
- GI50 (UACC-257): > 100 µM (inactive)
- GI50 (SF-295): > 100 µM (inactive)
- GI50 (KM-20L2): > 100 µM (inactive)
- GI50 (DLD-1): > 100 µM (inactive)
- GI50 (NCI-H460): > 100 µM (inactive)
- GI50 (COLO 205): > 100 µM (inactive)
- GI50 (M14): > 100 µM (inactive)
- GI50 (Malme-3M): > 100 µM (inactive)
- GI50 (HCC 2998): > 100 µM (inactive)
- GI50 (UACC-62): > 100 µM (inactive)
- GI50 (OVCAR-3): 59.7 µM (inactive)
- GI50 (RXF 393): > 100 µM (inactive)
- GI50 (A549): > 100 µM (inactive)
- GI50 (IGROV-1): > 100 µM (inactive)
- GI50 (SN12C): > 100 µM (inactive)
- GI50 (DMS-273): > 100 µM (inactive)
- GI50 (EKVX): > 100 µM (inactive)
- GI50 (SNB-19): > 100 µM (inactive)
- GI50 (SNB-75): > 100 µM (inactive)
- GI50 (KM12): > 100 µM (inactive)
- GI50 (SNB-78): > 100 µM (inactive)
- GI50 (U-251): > 100 µM (inactive)
- GI50 (SW-620): > 100 µM (inactive)
- GI50 (HT-29): > 100 µM (inactive)
- GI50 (OVCAR-4): > 100 µM (inactive)
- GI50 (DMS-114): > 100 µM (inactive)
- GI50 (HOP-62): > 100 µM (inactive)
- GI50 (NCI-H23): > 100 µM (inactive)
- GI50 (LXFL 529): > 100 µM (inactive)
- GI50 (SF-539): > 100 µM (inactive)
- GI50 (HCT-15): > 100 µM
- GI50 (SF-268): > 100 µM (inactive)
- GI50 (M19-MEL): > 100 µM (inactive)
- GI50 (TK-10): > 100 µM (inactive)
- GI50 (UO-31): > 100 µM (inactive)
- GI50 (SK-MEL-2): > 100 µM (inactive)
- GI50 (MOLT-4): > 100 µM (inactive)
- GI50 (ACHN): > 100 µM (inactive)
- GI50 (SK-MEL-28): > 100 µM (inactive)
- GI50 (K562): > 100 µM (inactive)
- GI50 (786-0): > 100 µM (inactive)
- GI50 (SK-MEL-5): > 100 µM (inactive)
- GI50 (A498): > 100 µM (inactive)
- GI50 (HL-60): > 100 µM (inactive)
- GI50 (CCRF-CEM): > 100 µM (inactive)
- GI50 (RPMI-8226): > 100 µM (inactive)
- GI50 (HOP-18): 3.49 µM (inactive)
- GI50 (SK-OV-3): > 100 µM (inactive)
- GI50 (HOP-92): > 100 µM (inactive)
- GI50 (NCI-H226): < 0.01 µM (active)

SMILES: COc1ccc2[nH]c3c4c(cc(-c5ccccc5)c3c2c1)C(=O)N(c1ccccc1)C4=O
- GI50 (LOX IMVI): 16.1 µM (inactive)
- GI50 (HCT-116): 29.2 µM (inactive)
- GI50 (OVCAR-8): 6.05 µM (inactive)
- GI50 (UACC-257): 35.3 µM (inactive)
- GI50 (SF-295): 4.84 µM (inactive)
- GI50 (KM-20L2): > 100 µM (inactive)
- GI50 (DLD-1): > 53 µM (inactive)
- GI50 (NCI-H460): 9.73 µM (inactive)
- GI50 (COLO 205): 17.7 µM (inactive)
- GI50 (M14): 19.3 µM (inactive)
- GI50 (Malme-3M): 20.4 µM (inactive)
- GI50 (OVCAR-5): > 100 µM (inactive)
- GI50 (HCC 2998): > 100 µM (inactive)
- GI50 (UACC-62): 21.7 µM (inactive)
- GI50 (OVCAR-3): 17.9 µM (inactive)
- GI50 (RXF 393): 13 µM (inactive)
- GI50 (A549): 13.8 µM (inactive)
- GI50 (IGROV-1): 41.5 µM (inactive)
- GI50 (SN12C): 21.5 µM (inactive)
- GI50 (DMS-273): 2.07 µM (inactive)
- GI50 (EKVX): 38.6 µM (inactive)
- GI50 (SNB-19): 23.6 µM (inactive)
- GI50 (SNB-75): 6.3 µM (inactive)
- GI50 (KM12): 33.3 µM (inactive)
- GI50 (SNB-78): 27.2 µM (inactive)
- GI50 (U-251): 5.98 µM (inactive)
- GI50 (SW-620): 11.4 µM (inactive)
- GI50 (HT-29): 22.7 µM (inactive)
- GI50 (OVCAR-4): 0.411 µM (active)
- GI50 (DMS-114): > 47.8 µM (inactive)
- GI50 (HOP-62): 14.2 µM (inactive)
- GI50 (CAKI-1): 27 µM (inactive)
- GI50 (NCI-H23): 31.9 µM (inactive)
- GI50 (LXFL 529): 18.1 µM (inactive)
- GI50 (SF-539): 2 µM (inactive)
- GI50 (HCT-15): 41.4 µM
- GI50 (SF-268): 23.1 µM (inactive)
- GI50 (M19-MEL): 30.5 µM (inactive)
- GI50 (TK-10): 64.9 µM (inactive)
- GI50 (SR): 1.77 µM (inactive)
- GI50 (UO-31): 28.5 µM (inactive)
- GI50 (SK-MEL-2): 21.3 µM (inactive)
- GI50 (MOLT-4): 19.5 µM (inactive)
- GI50 (ACHN): > 41.5 µM (inactive)
- GI50 (SK-MEL-28): 37.9 µM (inactive)
- GI50 (K562): 22.1 µM (inactive)
- GI50 (NCI-H522): 8.24 µM (inactive)
- GI50 (786-0): 4.9 µM (inactive)
- GI50 (SK-MEL-5): 12.3 µM (inactive)
- GI50 (A498): > 45.6 µM (inactive)
- GI50 (HL-60): 38.5 µM (inactive)
- GI50 (CCRF-CEM): 4.97 µM (inactive)
- GI50 (RPMI-8226): > 60 µM (inactive)
- GI50 (HOP-18): 24.7 µM (inactive)
- GI50 (SK-OV-3): 26.3 µM (inactive)
- GI50 (HOP-92): 17.6 µM (inactive)
- GI50 (NCI-H226): 25.1 µM (inactive)

Source: ChEMBL document CHEMBL1201862, “PubChem BioAssay data set” (2004)
